Experimental data published in patent publication US10981932B2, “Macrocyclic indole derivatives” (Bayer Aktiengesellschaft, priority 2016, dated 2021).
Where a name gives a salt, the structure may show the parent alone. Read-outs that look alike come from different tables or passages of the source.

Assays:
MCL-1 = MCL-1 (Homo sapiens, UniProt Q07820); test: Protein-protein interaction assay MCL-1/Noxa BH3 peptide (MCL-1 assay), TR-FRET; assay type: binding; details: MBP-MCL-1 / Noxa BH3-derived peptide, median
In short: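 Steady-state competition, MCL-1/Noxa BH3, TR-FRET readout; 1 nM MBP-MCL-1, 11-point dose series 0.1 nM–20 μM; overnight 4 °C equilibration; 4-parameter IC50.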

SUDHL5 [1] = test: Induction of caspase-3/7 activity (Caspase-Glo 3/7), SUDHL5; assay type: cell-based; details: caspase-3/7 induction, SUDHL5 cells, 3 h treatment; median
In short: (§1)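 A 3 h, 37 °C compound incubation precedes the Caspase-Glo 3/7 read. After subtracting medium-only signal, EC50s are fitted against the reference compound's maximal caspase induction.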

SUDHL10 [2] = test: Induction of caspase-3/7 activity (Caspase-Glo 3/7), SUDHL10; assay type: cell-based; details: caspase-3/7 induction, SUDHL10 cells, 3 h treatment, median
In short: as §1

SUDHL5 [3] = test: Anti-proliferative effect (CellTiter-Glo, 72 h), SUDHL5; assay type: cell-based; details: SUDHL5 cells, antiproliferation, 72 h incubation, median, read-out: Antiproli SUDHL5 [M] (median)
In short: (§2)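 Endpoint: CellTiter-Glo luminescence, 10 min after reagent addition. Treatment ran 72 h at 37 °C, humidified. Growth was referenced to a separately plated day 0 plate.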

A2780 = test: Anti-proliferative effect (CellTiter-Glo, 72 h), A2780; assay type: cell-based; details: A2780 cells, median, read-out: IC50 antiproliferation assay A2780 [M] (median)
In short: as §2

MV-4-11 = test: Anti-proliferative effect (CellTiter-Glo, 72 h), MV-4-11; assay type: cell-based; details: MV-4-11 cells, median, read-out: IC50 antiproliferation assay MV-4-11 [M] (median)
In short: as §2

SUDHL5 [4] = test: Induction of cytotoxicity (CellTiter-Glo, 5 h), SUDHL5; details: read-out: Cytotox SUDHL5 [M] (median); SUDHL5 cells, cytotoxicity induction, CellTiter-Glo, 5 h incubation, median
SUDHL10 [5] = test: Induction of cytotoxicity (CellTiter-Glo, 5 h), SUDHL10
[6] = read-out: Cytotox SUDHL10 [M] (median), SUDHL10 cells, cytotoxicity induction, CellTiter-Glo, 5 h incubation, median
[7] = Homo sapiens, SU-DHL10, 5 h, read-out: Cytotox SUDHL10 [M] (median), SUDHL10 cells, cytotoxicity induction, CellTiter-Glo, 5 h incubation, median

Chain of MCL-1 (Q07820 whole entry): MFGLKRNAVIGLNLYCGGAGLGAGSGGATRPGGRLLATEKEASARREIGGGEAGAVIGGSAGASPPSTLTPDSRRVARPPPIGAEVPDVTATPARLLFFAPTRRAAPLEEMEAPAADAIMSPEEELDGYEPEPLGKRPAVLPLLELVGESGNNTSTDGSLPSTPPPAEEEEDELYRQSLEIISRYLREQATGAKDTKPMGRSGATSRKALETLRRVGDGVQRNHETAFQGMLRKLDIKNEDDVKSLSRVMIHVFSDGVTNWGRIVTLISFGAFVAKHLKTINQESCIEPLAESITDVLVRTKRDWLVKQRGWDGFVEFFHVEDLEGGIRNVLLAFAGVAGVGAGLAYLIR

SMILES	IC50 (MCL-1) [µM]	EC50 (SUDHL5 [1]) [µM]	EC50 (SUDHL10 [2]) [µM]	IC50 (SUDHL5 [3]) [M]	IC50 (A2780) [M]	IC50 (MV-4-11) [M]	EC50 (SUDHL10 [2]; Homo sapiens, SU-DHL10, 3 h) [µM]	IC50 (SUDHL5 [3]; Homo sapiens, SU-DHL-5, 72 h) [M]	IC50 (MV-4-11; Homo sapiens, MV4-11, 72 h) [M]	IC50 (A2780; Homo sapiens, A2780, 72 h) [M]	IC50 (SUDHL5 [4]) [M]	IC50 (SUDHL10 [5]; [6]) [M]	IC50 (SUDHL10 [5]; [7]) [M]
Cn1nc(CC(F)(F)F)c2c1COCCCCn1c(C(=O)O)c(CCCOc3cccc4ccccc34)c3cccc-2c31 (single isomer, unassigned) [Example 221, 1-methyl-7-[3-(naphthalen-1-yloxy)propyl]-3-(2,2,2-trifluoroethyl)-1,10,11,12,13,15-hexahydropyrazolo[4′,3′:9,10][1,6]oxazacycloundecino[8,7,6-hi]indole-8-carboxylic acid-N-ethylethanamine Salt]	0.353	> 33	> 33	9.75e-06	3.28e-05	> 3.3e-05					> 3.3e-05	> 3.3e-05	
CN1CCCCn2c(C(=O)O)c(CCCOc3cccc4ccccc34)c3cccc(c32)-c2c(CC(F)(F)F)nn(C)c2C1 (single isomer, unassigned) [Example 224, 1,14-dimethyl-7-[3-(naphthalen-1-yloxy)propyl]-3-(2,2,2-trifluoroethyl)-10,11,12,13,14,15-hexahydro-1H-pyrazolo[3′,4′:8,9][1,6]diazacycloundecino[10,11,1-hi]indole-8-carboxylic Acid]	0.395	> 33	> 33	6.03e-06	1.45e-05	1.22e-05					> 3.3e-05	3.2e-05	
CN1CCCCn2c(C(=O)O)c(CCCOc3cccc4ccccc34)c3cccc(c32)-c2c(/C=C/F)nn(C)c2C1 (single isomer, unassigned) [Example 227, 3-[(E)-2-fluoroethenyl]-1,14-dimethyl-7-[3-(naphthalen-1-yloxy)propyl]-10,11,12,13,14,15-hexahydro-1H-pyrazolo[3′,4′:8,9][1,6]diazacycloundecino[10,11,1-hi]indole-8-carboxylic Acid]	0.0909	> 33	> 33	8.96e-06	1.65e-05	1.66e-05					> 3.3e-05	> 3.3e-05	
Cn1nc2c(c1OC(F)F)-c1cccc3c(CCCOc4cccc5ccccc45)c(C(=O)O)n(c13)CCCCOC2 (single isomer, unassigned) [Example 235, (−)-3-(difluoromethoxy)-2-methyl-7-[3-(naphthalen-1-yloxy)propyl]-2,10,11,12,13,15-hexahydropyrazolo[4′,3′:9,10][1,6]oxazacycloundecino[8,7,6-hi]indole-8-carboxylic Acid]	0.0779	> 33					> 33	1.22e-05	2.07e-05	1.8e-05	> 3.3e-05		> 3.3e-05

These reach a lower IC50 (MCL-1). Values come first.

IC50 (MCL-1) [µM]	EC50 (SUDHL5 [1]) [µM]	EC50 (SUDHL10 [2]) [µM]	IC50 (SUDHL5 [3]) [M]	IC50 (A2780) [M]	IC50 (MV-4-11) [M]	EC50 (SUDHL10 [2]; Homo sapiens, SU-DHL10, 3 h) [µM]	IC50 (SUDHL5 [3]; Homo sapiens, SU-DHL-5, 72 h) [M]	IC50 (MV-4-11; Homo sapiens, MV4-11, 72 h) [M]	IC50 (A2780; Homo sapiens, A2780, 72 h) [M]	SMILES	IC50 (SUDHL5 [4]) [M]	IC50 (SUDHL10 [5]; [6]) [M]	IC50 (SUDHL10 [5]; [7]) [M]
0.00424	6.96			> 3.3e-05		26.2	9.92e-06	1.79e-05		CN1CCCCn2c(C(=O)O)c(CCCOc3cccc4ccccc34)c3cccc(c32)-c2c(CC(F)(F)F)nn(C)c2C1 (single isomer, unassigned) [Example 223, 1,14-dimethyl-7-[3-(naphthalen-1-yloxy)propyl]-3-(2,2,2-trifluoroethyl)-10,11,12,13,14,15-hexahydro-1H-pyrazolo[3′,4′:8,9][1,6]diazacycloundecino[10,11,1-hi]indole-8-carboxylic Acid]	8.33e-06	> 3.3e-05	2.88e-05
0.00302	3.15	14.2	3.15e-06					2.09e-05	> 3.3e-05	CN1CCCCn2c(C(=O)O)c(CCCOc3cccc4ccccc34)c3cccc(c32)-c2c(/C=C/F)nn(C)c2C1 (single isomer, unassigned) [Example 226, 3-[(E)-2-fluoroethenyl]-1,14-dimethyl-7-[3-(naphthalen-1-yloxy)propyl]-10,11,12,13,14,15-hexahydro-1H-pyrazolo[3′,4′:8,9][1,6]diazacycloundecino[10,11,1-hi]indole-8-carboxylic Acid]	3.41e-06		3.04e-05
